Results taken from US7566737B2 (Genfit, priority 2002, dated 2009).

Legend:
[1] = system: Human THP-1 monocytes differentiated in macrophages; test: Anti-inflammatory properties: cytokine secretion by LPS-stimulated macrophages; format: cell-based; conditions: pre-treated 24 hours, LPS 6 hours, vs non-treated cells
Procedure: TNF-α (tumor necrosis factor alpha) and IL-6 (interleukin-6) are two important markers of the inflammatory response to stress. The anti-inflammatory property of the compound 29 was evaluated as follows:
Human THP-1 monocytes were differentiated in macrophages by a 72 h incubation with 30 ng/ml of PMA (Phorbol Myristate Acetate). Differentiated macrophages were then treated with the inventive compound 29 at different concentrations during 24 h in culture medium without serum. Stimulation with LPS 1 μg/ml was finally performed during 6 hours (LPS bacterial endotoxin (Escherichia coli 0111 :B4) (Sigma, France) was reconstituted in distilled water).
TNF-α and IL-6 secretion were quantified in the culture medium of LPS-stimulated cells with TNF-α and IL6 ELISA kits (Immunotech, France).

PPARδ = biological target: T1, PPARδ (Mus musculus, UniProt P35396); test: In vivo evaluation of PPARδ properties (target gene expression, RT-PCR); conditions: PPARα knock-out mouse; 150 mg/kg/day for 3 days
T1 construct: from tissue; host or cells: heart and skeletal muscle (quadriceps) of PPARα knock-out mice
T1 sequence (P35396 1-440): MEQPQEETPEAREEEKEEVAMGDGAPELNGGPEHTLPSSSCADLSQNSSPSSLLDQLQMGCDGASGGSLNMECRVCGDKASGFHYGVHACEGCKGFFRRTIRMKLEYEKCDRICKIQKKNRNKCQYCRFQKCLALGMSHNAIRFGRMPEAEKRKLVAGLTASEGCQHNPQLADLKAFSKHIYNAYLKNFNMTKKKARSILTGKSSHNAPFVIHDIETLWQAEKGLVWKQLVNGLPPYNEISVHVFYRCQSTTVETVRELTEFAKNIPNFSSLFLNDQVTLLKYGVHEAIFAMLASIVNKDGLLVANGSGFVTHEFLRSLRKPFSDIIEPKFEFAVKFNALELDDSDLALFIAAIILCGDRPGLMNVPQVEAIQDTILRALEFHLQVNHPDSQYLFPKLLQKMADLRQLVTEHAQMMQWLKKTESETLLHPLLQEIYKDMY
Procedure: The PPARα knock-out mouse model was used to characterize in vivo PPARδ activation. Animals were treated for 3 days at the dose of 150 mg/kg/day. Total RNA was isolated from heart and skeletal muscle (quadriceps). Messenger RNAs were quantified by quantitative RT-PCR and expression levels were normalized using 18S gene as reference.
The […] knock-out mouse model was used to characterize in vivo PPARδ activation. Animals were treated for 3 days at the dose of 150 mg/kg/day. Total RNA was isolated from heart and skeletal muscle (quadriceps). Messenger RNAs were quantified by quantitative RT-PCR: total RNA was extracted from fragments of skeletal muscle or heart, using the RNeasy® Fibrous Tissue kit (Qiagen), according to the manufacturer's instructions. Reverse transcription was performed on 1 μg of total RNA (quantified using the Ribogreen RNA quantification kit (Molecular Probes)) by action of 1 μl of MMLV-RT enzyme (Sigma) during 1 hour at 37° C. in a total volume of 20 μl. The reaction conditions were 1× buffer (Sigma), 1.5 mM DTT, 0.18 mM dNTPs (Promega), 200 ng pdN6 (Amersham), 30 U RNase inhibitor (Sigma). Quantitative PCR was then carried out using the MyiQ Single-Color Real-Time PCR Detection System (Biorad). Briefly PCR reactions were performed in 96 well plates on 5 μl of diluted reverse transcription mix using the iQ SYBR Green Supermix kit. The reaction conditions were: 25 μl of volume reaction, 3 mM of MgCl2, and 0.5 μl of each reverse and forward primer solutions (10 pMol), Tm of 55° C. The primers pairs are specific for each target genes. […]
The quantity of fluorescence emitted is directly proportional to the quantity of complementary DNA present at the start of the reaction and amplified during the PCR. The relative levels of expression were determined using the standard curve for each transcript. […] The induction factor, i.e. the ratio between the relative signal induced by the compound according to the invention and the average of the values relating to the control group, was then calculated for each sample. […]

| Structure (SMILES) | IL-6 secretion ([1]; 0.1, 1 and 10 μM) | TNF-α secretion ([1]; 1 and 10 μM) | PDK4 expression in the heart (PPARδ) | UCP2 expression in the skeletal muscle (PPARδ) | UCP3 expression in the heart (PPARδ) |
| --- | --- | --- | --- | --- | --- |
| CSc1ccc(C(=O)/C=C/c2cc(C)c(OC(C)(C)C(=O)O)c(C)c2)cc1 [Compound 29, 1-[4-methylthiophenyl]-3-[3,5-dimethyl-4-carboxydimethylmethyloxyphenyl]prop-2-en-1-one] | decrease | decrease | – | – | – |
| Cc1cc(/C=C/C(=O)c2ccc(Br)cc2)cc(C)c1OC(C)(C)C(=O)O [Compound 41, 1-[4-bromophenyl]-3-[3,5-dimethyl-4-carboxydimethylmethyloxyphenyl]prop-2-en-1-one] | – | – | Induction | Induction | Induction |
